In brackets after ≈: the same amount, converted by molar mass. Each block holds one compound with its values, some of them ahead of it.
How the values were obtained:
Type in all cases: physicochemical
[1] = DVS (Method B) water sorption / hygroscopicity; conditions: 25° C.; for water sorption: at 95% RH
Procedure: DVS of Form A and U was also measured via an SMS (Surface Measurement Systems) DVS Intrinsic (Method B). The relative humidity at 25° C. was calibrated against deliquescence point of LiCl, Mg(NO3)2, and KCL. Parameters for DVS test are listed as follows. [table]

[2] = Solid form solubility, concentration by HPLC at 24 hours; conditions: listed as Compound 1 Form A
Procedure: The solubility of Compound 1 in different physical forms was tested in water, 0.1 N HCl, pH 4.5 acetate buffer and pH 6.8 phosphate buffer. At 24 hours of time point, the concentration of Compound 1 was detected by HPLC.

[3] = Long term and accelerated physical and chemical stability test, impurities by HPLC
Procedure: Long term and accelerated stability studies were conducted in different physical forms of Compound 1, by storing the samples at 25±2° C./60±5% RH and 40±2° C./75±5% RH conditions for up to 6 months. And, the content of the total impurities of each sample was tested by HPLC.

[4] = Physical stability: storage under humidity/temperature, form checked by XRPD
Procedure: To evaluate the physicochemical stability, store 1˜3 mg of Forms B, S, M, R, F, H and N samples were stored under 25° C./60% RH or 40° C./75% RH conditions for one week (unsealed) or 80° C. condition for 24 hrs (sealed).

[5] = Storage at RT, form checked by XRPD overlay
Procedure: Form K was speculated as a methyl acetate solvate.
Thus, Form L was speculated as a metastable anhydrate/hydrate which could be de-solvated from the wet cake from the solvent system.
(peak) before decomposition (FIG. 16B). According to the integration of ^1H NMR result (FIG. 16C), the theoretical weight of chlorobenzene was calculated as 9.8%, which matched with the TGA weight loss. […] After heating the sample to 140° C., more diffraction peaks disappeared. Combined with the TGA, ^1H NMR data and heating experiment, Form P was speculated as a chlorobenzene solvate.

[6] = 25±2° C./60±5% RH and 40±2° C./75±5% RH, up to 6 months
[7] = 25° C./60% RH, one week, unsealed
[8] = 40° C./75% RH, one week, unsealed

form change on storage ([5]; storage at RT): converted to Form I
Compound: CC(C)c1ccccc1[C@@H]1CCCN1C1CC2(CCN(c3ccc(C(=O)NS(=O)(=O)c4ccc(NCC5CCC(C)(O)CC5)c([N+](=O)[O-])c4)c(Oc4cnc5[nH]ccc5c4)c3)CC2)C1 (stereo partly drawn) [Form L, 2-((1H-pyrrolo[2,3-b]pyridin-5-yl)oxy)-N-((4-((((1r,4r)-4-hydroxy-4-methylcyclohexyl)methyl)amino)-3-nitrophenyl)sulfonyl)-4-(2-((S)-2-(2-isopropylphenyl)pyrrolidin-1-yl)-7-azaspiro[3.5]nonan-7-yl)benzamide]

form change (XRPD overlay) [4, 7]: no form change | form change (XRPD overlay) [4, 8]: no form change | form change (XRPD overlay) ([4]; 80° C., sealed, 24 hrs): no form change
Compound: CC(C)c1ccccc1[C@@H]1CCCN1C1CC2(CCN(c3ccc(C(=O)NS(=O)(=O)c4ccc(NCC5CCC(C)(O)CC5)c([N+](=O)[O-])c4)c(Oc4cnc5[nH]ccc5c4)c3)CC2)C1 (stereo partly drawn) [Form M, 2-((1H-pyrrolo[2,3-b]pyridin-5-yl)oxy)-N-((4-((((1r,4r)-4-hydroxy-4-methylcyclohexyl)methyl)amino)-3-nitrophenyl)sulfonyl)-4-(2-((S)-2-(2-isopropylphenyl)pyrrolidin-1-yl)-7-azaspiro[3.5]nonan-7-yl)benzamide]

form change (XRPD overlay) [4, 7]: converted to Form T | form change (XRPD overlay) [4, 8]: converted to Form T | form change (XRPD overlay) ([4]; 80° C., sealed, 24 hrs): converted to Form T
Compound: CC(C)c1ccccc1[C@@H]1CCCN1C1CC2(CCN(c3ccc(C(=O)NS(=O)(=O)c4ccc(NCC5CCC(C)(O)CC5)c([N+](=O)[O-])c4)c(Oc4cnc5[nH]ccc5c4)c3)CC2)C1 (stereo partly drawn) [Form N, 2-((1H-pyrrolo[2,3-b]pyridin-5-yl)oxy)-N-((4-((((1r,4r)-4-hydroxy-4-methylcyclohexyl)methyl)amino)-3-nitrophenyl)sulfonyl)-4-(2-((S)-2-(2-isopropylphenyl)pyrrolidin-1-yl)-7-azaspiro[3.5]nonan-7-yl)benzamide]

form change (XRPD overlay) [4, 7]: no form change was observed | form change (XRPD overlay) [4, 8]: no form change was observed
Compound: CC(C)c1ccccc1[C@@H]1CCCN1C1CC2(CCN(c3ccc(C(=O)NS(=O)(=O)c4ccc(NCC5CCC(C)(O)CC5)c([N+](=O)[O-])c4)c(Oc4cnc5[nH]ccc5c4)c3)CC2)C1 (stereo partly drawn) [Form R, 2-((1H-pyrrolo[2,3-b]pyridin-5-yl)oxy)-N-((4-((((1r,4r)-4-hydroxy-4-methylcyclohexyl)methyl)amino)-3-nitrophenyl)sulfonyl)-4-(2-((S)-2-(2-isopropylphenyl)pyrrolidin-1-yl)-7-azaspiro[3.5]nonan-7-yl)benzamide]
form change (XRPD overlay) ([4]; 80° C., sealed, 24 hrs): converted to a form which was similar to Form S

form change (XRPD overlay) [4, 7]: no form change | form change (XRPD overlay) [4, 8]: no form change | form change (XRPD overlay) ([4]; 80° C., sealed, 24 hrs): no form change
Compound: CC(C)c1ccccc1[C@@H]1CCCN1C1CC2(CCN(c3ccc(C(=O)NS(=O)(=O)c4ccc(NCC5CCC(C)(O)CC5)c([N+](=O)[O-])c4)c(Oc4cnc5[nH]ccc5c4)c3)CC2)C1 (stereo partly drawn) [Form S, 2-((1H-pyrrolo[2,3-b]pyridin-5-yl)oxy)-N-((4-((((1r,4r)-4-hydroxy-4-methylcyclohexyl)methyl)amino)-3-nitrophenyl)sulfonyl)-4-(2-((S)-2-(2-isopropylphenyl)pyrrolidin-1-yl)-7-azaspiro[3.5]nonan-7-yl)benzamide]

water sorption ([1]; listed as Compound 1 Form U): 1.4% | hygroscopicity ([1]; listed as Compound 1 Form U): slightly hygroscopicity | change of chemical purity ([3]; 25±2° C./60±5% RH and 40±2° C./75±5% RH, up to 6 months, listed as Compound 1 Form U): no significant change | total content of impurities ([3]; after 6 months at 40±2° C./75±5% RH, listed as Compound 1 Form U): 0.72% | total content of impurities ([3]; before storage (initial), listed as Compound 1 Form U): 0.40%
Compound: CC(C)c1ccccc1[C@@H]1CCCN1C1CC2(CCN(c3ccc(C(=O)NS(=O)(=O)c4ccc(NCC5CCC(C)(O)CC5)c([N+](=O)[O-])c4)c(Oc4cnc5[nH]ccc5c4)c3)CC2)C1 (stereo partly drawn) [Form U, 2-((1H-pyrrolo[2,3-b]pyridin-5-yl)oxy)-N-((4-((((1r,4r)-4-hydroxy-4-methylcyclohexyl)methyl)amino)-3-nitrophenyl)sulfonyl)-4-(2-((S)-2-(2-isopropylphenyl)pyrrolidin-1-yl)-7-azaspiro[3.5]nonan-7-yl)benzamide]

The next lines start with the compound.

Compound: CC(C)c1ccccc1[C@@H]1CCCN1C1CC2(CCN(c3ccc(C(=O)NS(=O)(=O)c4ccc(NCC5CCC(C)(O)CC5)c([N+](=O)[O-])c4)c(Oc4cnc5[nH]ccc5c4)c3)CC2)C1 (stereo partly drawn) [Form A, 2-((1H-pyrrolo[2,3-b]pyridin-5-yl)oxy)-N-((4-((((1r,4r)-4-hydroxy-4-methylcyclohexyl)methyl)amino)-3-nitrophenyl)sulfonyl)-4-(2-((S)-2-(2-isopropylphenyl)pyrrolidin-1-yl)-7-azaspiro[3.5]nonan-7-yl)benzamide]
water sorption ([1]; listed as Compound 1 form A): 0.4% | hygroscopicity ([1]; listed as Compound 1 form A): slightly hygroscopic | solubility ([2]; 0.1 N HCl): 29.36 µg/mL (≈ 33 µM) | solubility ([2]; pH 4.5 acetate buffer): 0.76 µg/mL (≈ 0.854 µM) | solubility ([2]; pH 6.8 phosphate buffer): 0.43 µg/mL (≈ 0.483 µM) | solubility ([2]; water): 0.37 µg/mL (≈ 0.416 µM) | crystal form change [3, 6]: no crystal form and optical purity changes | optical purity change [3, 6]: no crystal form and optical purity changes | change of chemical purity ([3]; 25±2° C./60±5% RH and 40±2° C./75±5% RH, up to 6 months, listed as Compound 1 Form A): no significant change | total content of impurities ([3]; after 6 months at 40±2° C./75±5% RH, listed as Compound 1 Form A): 0.52% | content of solvent EA ([3]; after storage in the stability study): ~8.8 ×10^4 ppm | content of solvent EA ([3]; before storage (initial)): about 9.5 ×10^4 ppm | total content of impurities ([3]; before storage (initial), listed as Compound 1 Form A): 0.40%

Compound: CC(C)c1ccccc1[C@@H]1CCCN1C1CC2(CCN(c3ccc(C(=O)NS(=O)(=O)c4ccc(NCC5CCC(C)(O)CC5)c([N+](=O)[O-])c4)c(Oc4cnc5[nH]ccc5c4)c3)CC2)C1 (stereo partly drawn) [Form F, 2-((1H-pyrrolo[2,3-b]pyridin-5-yl)oxy)-N-((4-((((1r,4r)-4-hydroxy-4-methylcyclohexyl)methyl)amino)-3-nitrophenyl)sulfonyl)-4-(2-((S)-2-(2-isopropylphenyl)pyrrolidin-1-yl)-7-azaspiro[3.5]nonan-7-yl)benzamide]
form change (XRPD overlay) [4, 7]: a mixture of Forms F and B was observed | form change (XRPD overlay) [4, 8]: a mixture of Forms F and B was observed | form change (XRPD overlay) ([4]; 80° C., sealed, 24 hrs): a mixture of Forms F and B was observed

Compound: CC(C)c1ccccc1[C@@H]1CCCN1C1CC2(CCN(c3ccc(C(=O)NS(=O)(=O)c4ccc(NCC5CCC(C)(O)CC5)c([N+](=O)[O-])c4)c(Oc4cnc5[nH]ccc5c4)c3)CC2)C1 (stereo partly drawn) [Form H, 2-((1H-pyrrolo[2,3-b]pyridin-5-yl)oxy)-N-((4-((((1r,4r)-4-hydroxy-4-methylcyclohexyl)methyl)amino)-3-nitrophenyl)sulfonyl)-4-(2-((S)-2-(2-isopropylphenyl)pyrrolidin-1-yl)-7-azaspiro[3.5]nonan-7-yl)benzamide]
form change (XRPD overlay) [4, 7]: no form change | form change (XRPD overlay) [4, 8]: no form change | form change (XRPD overlay) ([4]; 80° C., sealed, 24 hrs): an obvious decrease of crystallinity was observed

Compound: CC(C)c1ccccc1[C@@H]1CCCN1C1CC2(CCN(c3ccc(C(=O)NS(=O)(=O)c4ccc(NCC5CCC(C)(O)CC5)c([N+](=O)[O-])c4)c(Oc4cnc5[nH]ccc5c4)c3)CC2)C1 (stereo partly drawn) [Form K, 2-((1H-pyrrolo[2,3-b]pyridin-5-yl)oxy)-N-((4-((((1r,4r)-4-hydroxy-4-methylcyclohexyl)methyl)amino)-3-nitrophenyl)sulfonyl)-4-(2-((S)-2-(2-isopropylphenyl)pyrrolidin-1-yl)-7-azaspiro[3.5]nonan-7-yl)benzamide]
form change on storage (XRPD overlay) ([5]; RT, closed HPLC vial, ~5 weeks): converted to Form B of low crystallinity

Compound: CC(C)c1ccccc1[C@@H]1CCCN1C1CC2(CCN(c3ccc(C(=O)NS(=O)(=O)c4ccc(NCC5CCC(C)(O)CC5)c([N+](=O)[O-])c4)c(Oc4cnc5[nH]ccc5c4)c3)CC2)C1 (stereo partly drawn) [Form P, 2-((1H-pyrrolo[2,3-b]pyridin-5-yl)oxy)-N-((4-((((1r,4r)-4-hydroxy-4-methylcyclohexyl)methyl)amino)-3-nitrophenyl)sulfonyl)-4-(2-((S)-2-(2-isopropylphenyl)pyrrolidin-1-yl)-7-azaspiro[3.5]nonan-7-yl)benzamide]
form change on storage (XRPD comparison) ([5]; RT, ~4 weeks): some of the diffraction peaks disappeared

— US20240317743A1, “Solid Forms of BCL-2 Inhibitors, Method of Preparation, and Use Thereof” (BeiGene, Ltd., priority 2021, published 2024)
